Assay results as given in ChEMBL document CHEMBL5346925, “3,4-Dihydrobenzo[e][1,2,3]oxathiazine 2,2-dioxide analogs act as potential AMPA receptor potentiators with antidepressant activity” (Eur J Med Chem, 2023).

tested on: not listed separately; assay: Half life in Sprague-Dawley rat at 3 mg/kg, po by LC-MS/MS analysis; assay type: ADME, organism-based; details: in vivo

SMILES | half-life
O=S1(=O)NCc2cccc(-c3ccc(Oc4ccccc4)cc3)c2O1 | 3.12 h

tested on: not listed separately; assay: AUC (0 to infinity) in Sprague-Dawley rat at 0.3 mg/kg, iv by LC-MS/MS analysis; assay type: ADME, organism-based; parameters: dose 0.3 mg/kg, route iv; details: in vivo

SMILES | AUC(0-inf)
O=S1(=O)NCc2cccc(-c3ccc(Oc4ccccc4)cc3)c2O1 | 136 ng·h/mL

tested on: not listed separately; assay: Half life in Sprague-Dawley rat at 0.3 mg/kg, iv by LC-MS/MS analysis; assay type: ADME, organism-based; details: in vivo

SMILES | half-life
O=S1(=O)NCc2cccc(-c3ccc(Oc4ccccc4)cc3)c2O1 | 1.27 h

tested on: not listed separately; assay: Volume of distribution at steady state in Sprague-Dawley rat at 0.3 mg/kg, iv by LC-MS/MS analysis; assay type: ADME, organism-based; details: in vivo, read-out: Vdss

SMILES | Vd
O=S1(=O)NCc2cccc(-c3ccc(Oc4ccccc4)cc3)c2O1 | 1.79 L/kg

tested on: not listed separately; assay: MRT (0 to infinity) in Sprague-Dawley rat at 3 mg/kg, po by LC-MS/MS analysis; assay type: ADME, organism-based; details: in vivo

SMILES | MRT inf
O=S1(=O)NCc2cccc(-c3ccc(Oc4ccccc4)cc3)c2O1 | 4.56 h

target: Glutamate receptor ionotropic, AMPA (Rattus norvegicus, UniProt P19490+P19491+P19492+P19493); assay: Agonist activity at AMPA receptor in rat Primary neuron cells; assay type: cell-based; details: not given

SMILES | EC50
COc1ccccc1-c1ccc(-c2cccc3c2OS(=O)(=O)NC3)cc1 | 0.379 µM
O=S1(=O)NCc2cccc(-c3ccc(Oc4ccccc4)cc3)c2O1 | 1.63 µM
COc1ccc(-c2ccc(-c3cccc4c3OS(=O)(=O)NC4)cc2)cc1 | 1.24 µM
COc1ccc(-c2cccc3c2OS(=O)(=O)NC3)cc1 | 0.555 µM

tested on: not listed separately; assay: Cmax in Sprague-Dawley rat at 0.3 mg/kg, iv by LC-MS/MS analysis; assay type: ADME, organism-based; parameters: dose 0.3 mg/kg, route iv; details: in vivo

SMILES | Cmax
O=S1(=O)NCc2cccc(-c3ccc(Oc4ccccc4)cc3)c2O1 | 246 ng/mL

target: T1, Glutamate receptor ionotropic, AMPA (Rattus norvegicus) (UniProt P19491+P19492+P19493+P19490); assay: Agonist activity at AMPA receptor in rat Primary neuron cells assessed as potentiation of s-AMPA induced calcium flux at 1 uM incubated for 1 hr by calcium 2+ influx assay relative to s-AMPA coupled TAK-137; assay type: cell-based; details: not given

SMILES | Activity
COc1ccc(-c2cccc3c2OS(=O)(=O)NC3)c(F)c1 | 10.3%
O=S1(=O)NCc2cccc(-c3ccc(-c4ccc(OC(F)(F)F)cc4)cc3)c2O1 | -3%
O=S1(=O)NCc2ccc(-c3ccc(Oc4ccccc4)cc3)cc2O1 | -0.8%
O=S1(=O)NCc2cccc(-c3ccccc3Oc3ccccc3)c2O1 | 1%
O=S1(=O)NCc2cccc(-c3ccc(-c4ccc(C(F)(F)F)cc4)cc3)c2O1 | 0.7%
CC(C)(C)c1ccc(-c2ccc(-c3cccc4c3OS(=O)(=O)NC4)cc2)cc1 | -1.3%
COc1c(C)cc(-c2cccc3c2OS(=O)(=O)NC3)cc1C | 2.6%
O=S1(=O)NCc2c(cccc2-c2ccc(Oc3ccccc3)cc2)O1 | 0%
O=S1(=O)NCc2cccc(-c3cccc(Oc4ccccc4)c3)c2O1 | 1.9%
O=S1(=O)NCc2cccc(-c3ccc(-c4ccc(F)c(F)c4)cc3)c2O1 | 38.7%
O=S1(=O)NCc2cccc(-c3ccc(-c4ccc(C(F)F)cc4)cc3)c2O1 | 23.9%
Cc1ccc(-c2ccc(-c3cccc4c3OS(=O)(=O)NC4)cc2F)cc1 | 37.7%
N#Cc1ccc(-c2cccc3c2OS(=O)(=O)NC3)cc1 | 23.7%
O=S1(=O)NCc2cc(-c3ccc(Oc4ccccc4)cc3)ccc2O1 | 1.4%
CC(C)Oc1ccc(-c2ccc(-c3cccc4c3OS(=O)(=O)NC4)cc2)cc1 | 3%
COc1ccc(-c2cccc3c2OS(=O)(=O)NC3)cc1C(F)(F)F | 0.6%

same assay, conditions: filed as agonist

SMILES | Activity
O=S1(=O)NCc2cccc(-c3ccc(C(F)(F)F)cc3)c2O1 | 81.3%
COc1ccc(-c2ccc(-c3cccc4c3OS(=O)(=O)NC4C)cc2)cc1 (centres undefined) | 50.7%
COc1ccccc1-c1ccc(-c2cccc3c2OS(=O)(=O)NC3)cc1 | 83.8%
O=S1(=O)NCc2cccc(-c3ccc(Oc4ccccc4)cc3)c2O1 | 77.3%
COc1ccc(-c2ccc(-c3cccc4c3OS(=O)(=O)NC4)cc2)cc1 | 82.4%
COc1ccc(-c2cccc3c2OS(=O)(=O)NC3)cc1 | 89.3%

tested on: not listed separately; assay: MRT (0 to infinity) in Sprague-Dawley rat at 0.3 mg/kg, iv by LC-MS/MS analysis; assay type: ADME, organism-based; details: in vivo

SMILES | MRT inf
O=S1(=O)NCc2cccc(-c3ccc(Oc4ccccc4)cc3)c2O1 | 0.81 h

tested on: not listed separately; assay: AUC (0 to infinity) in Sprague-Dawley rat at 3 mg/kg, po by LC-MS/MS analysis; assay type: ADME, organism-based; parameters: dose 3 mg/kg, route po; details: in vivo

SMILES | AUC(0-inf)
O=S1(=O)NCc2cccc(-c3ccc(Oc4ccccc4)cc3)c2O1 | 328 ng·h/mL

tested on: not listed separately; assay: Tmax in Sprague-Dawley rat at 3 mg/kg, po by LC-MS/MS analysis; assay type: ADME, organism-based; details: in vivo

SMILES | Tmax
O=S1(=O)NCc2cccc(-c3ccc(Oc4ccccc4)cc3)c2O1 | 0.5 h

target: T1, Glutamate receptor ionotropic, AMPA (Rattus norvegicus); assay: Agonist activity at AMPA receptor in rat Primary neuron cells assessed as increase in fluorescence level at 1 uM incubated for 1 hr by calcium 2+ influx assay relative to s-AMPA coupled TAK-137; assay type: cell-based; details: not given

SMILES | Activity
O=S1(=O)NCc2cccc(-c3ccc(C(F)(F)F)cc3)c2O1 | 14%
COc1ccc(-c2ccc(-c3cccc4c3OS(=O)(=O)NC4C)cc2)cc1 (centres undefined) | 2.1%
COc1ccc(-c2cccc3c2OS(=O)(=O)NC3)c(F)c1 | 8.2%
O=S1(=O)NCc2cccc(-c3ccc(-c4ccc(OC(F)(F)F)cc4)cc3)c2O1 | -1.5%
COc1ccccc1-c1ccc(-c2cccc3c2OS(=O)(=O)NC3)cc1 | 2.1%
O=S1(=O)NCc2ccc(-c3ccc(Oc4ccccc4)cc3)cc2O1 | 0.7%
O=S1(=O)NCc2cccc(-c3ccccc3Oc3ccccc3)c2O1 | -0.5%
O=S1(=O)NCc2cccc(-c3ccc(-c4ccc(C(F)(F)F)cc4)cc3)c2O1 | 0.8%
CC(C)(C)c1ccc(-c2ccc(-c3cccc4c3OS(=O)(=O)NC4)cc2)cc1 | -2%
COc1c(C)cc(-c2cccc3c2OS(=O)(=O)NC3)cc1C | 3.1%
O=S1(=O)NCc2c(cccc2-c2ccc(Oc3ccccc3)cc2)O1 | 0.8%
O=S1(=O)NCc2cccc(-c3cccc(Oc4ccccc4)c3)c2O1 | 1%
O=S1(=O)NCc2cccc(-c3ccc(-c4ccc(F)c(F)c4)cc3)c2O1 | 2.5%
O=S1(=O)NCc2cccc(-c3ccc(-c4ccc(C(F)F)cc4)cc3)c2O1 | 7.2%
O=S1(=O)NCc2cccc(-c3ccc(Oc4ccccc4)cc3)c2O1 | 4.1%
Cc1ccc(-c2ccc(-c3cccc4c3OS(=O)(=O)NC4)cc2F)cc1 | 6.3%
N#Cc1ccc(-c2cccc3c2OS(=O)(=O)NC3)cc1 | 2.9%
O=S1(=O)NCc2cc(-c3ccc(Oc4ccccc4)cc3)ccc2O1 | 0.5%
COc1ccc(-c2ccc(-c3cccc4c3OS(=O)(=O)NC4)cc2)cc1 | -3.7%
CC(C)Oc1ccc(-c2ccc(-c3cccc4c3OS(=O)(=O)NC4)cc2)cc1 | -2.1%
COc1ccc(-c2cccc3c2OS(=O)(=O)NC3)cc1 | 1%
COc1ccc(-c2cccc3c2OS(=O)(=O)NC3)cc1C(F)(F)F | 1.9%

tested on: not listed separately; assay: AUC (0 to t) in Sprague-Dawley rat at 3 mg/kg, po by LC-MS/MS analysis; assay type: ADME, organism-based; parameters: dose 3 mg/kg, route po; details: in vivo

SMILES | AUC(0-t)
O=S1(=O)NCc2cccc(-c3ccc(Oc4ccccc4)cc3)c2O1 | 265 ng·h/mL

target: T1, Glutamate receptor ionotropic, AMPA (Rattus norvegicus); assay: Agonist activity at AMPA receptor in rat Primary neuron cells relative to control; assay type: cell-based; details: filed as agonist

SMILES | Emax
COc1ccccc1-c1ccc(-c2cccc3c2OS(=O)(=O)NC3)cc1 | 125%
O=S1(=O)NCc2cccc(-c3ccc(Oc4ccccc4)cc3)c2O1 | 169%
COc1ccc(-c2ccc(-c3cccc4c3OS(=O)(=O)NC4)cc2)cc1 | 79%
COc1ccc(-c2cccc3c2OS(=O)(=O)NC3)cc1 | 99%

tested on: not listed separately; assay: Oral bioavailability in Sprague-Dawley rat at 3 mg/kg by LC-MS/MS analysis; assay type: ADME, organism-based; details: in vivo

SMILES | bioavailability
O=S1(=O)NCc2cccc(-c3ccc(Oc4ccccc4)cc3)c2O1 | 19.8%

tested on: not listed separately; assay: MRT (0 to t) in Sprague-Dawley rat at 3 mg/kg, po by LC-MS/MS analysis; assay type: ADME, organism-based; details: in vivo

SMILES | MRT last
O=S1(=O)NCc2cccc(-c3ccc(Oc4ccccc4)cc3)c2O1 | 2.63 h

tested on: not listed separately; assay: Tmax in Sprague-Dawley rat at 0.3 mg/kg, iv by LC-MS/MS analysis; assay type: ADME, organism-based; details: in vivo

SMILES | Tmax
O=S1(=O)NCc2cccc(-c3ccc(Oc4ccccc4)cc3)c2O1 | 4.8 min

tested on: not listed separately; assay: Clearance in Sprague-Dawley rat at 0.3 mg/kg, iv by LC-MS/MS analysis; assay type: ADME, organism-based; details: in vivo

SMILES | clearance
O=S1(=O)NCc2cccc(-c3ccc(Oc4ccccc4)cc3)c2O1 | 37.4 mL/min/kg

tested on: not listed separately; assay: MRT (0 to t) in Sprague-Dawley rat at 0.3 mg/kg, iv by LC-MS/MS analysis; assay type: ADME, organism-based; details: in vivo

SMILES | MRT last
O=S1(=O)NCc2cccc(-c3ccc(Oc4ccccc4)cc3)c2O1 | 0.7 h

tested on: not listed separately; assay: AUC (0 to t) in Sprague-Dawley rat at 0.3 mg/kg, iv by LC-MS/MS analysis; assay type: ADME, organism-based; parameters: dose 0.3 mg/kg, route iv; details: in vivo

SMILES | AUC(0-t)
O=S1(=O)NCc2cccc(-c3ccc(Oc4ccccc4)cc3)c2O1 | 134 ng·h/mL

tested on: not listed separately; assay: Cmax in Sprague-Dawley rat at 3 mg/kg, po by LC-MS/MS analysis; assay type: ADME, organism-based; parameters: dose 3 mg/kg, route po; details: in vivo

SMILES | Cmax
O=S1(=O)NCc2cccc(-c3ccc(Oc4ccccc4)cc3)c2O1 | 96.1 ng/mL
